Values of other authors as cited in publication PMC9762682, “Tocotrienols: Exciting Biological and Pharmacological Properties of Tocotrienols and Naturally Occurring Compounds, Part II” (Annals of clinical case reports, 2022).
Read-outs that look alike come from different tables or passages of the source. Marks after values point to notes of the source that are not given here.

What was measured:
[1] = set-up: method as in ref 16 = [16]; PMID 27493840; doi:10.4172/2155-9880.1000434; 16. Qureshi AA , Khan DA , Silswal N , Saleem S , Qureshi N . Evaluation of pharmacokinetics and bioavailability of higher doses of δ-tocotrienol in healthy fed humans . J Clin Exp Cardiol . 2016; 7
[2] = set-up: method as in ref 14 = [14]; PMID 27493840; doi:10.4172/2155-9880.1000434; 14. Qureshi AA , Khan DA , Saleem S , Silswal N , Trias AM , Tan B , Pharmacokinetics and bioavailability of Annatto δ-tocotrienol in healthy fed subjects . J Clin Exp Cardiol . 2015; 6 : 11 . 10.417; settings: for time of appearance in the plasma: after δ-tocotrienol administration to well-fed subjects; for Elimination of Half-life time (t1/2) / Elimination rate constant (ke) / Plasma Peak Concentration (Cmax) / Time to achieve plasma peak (Tmax): healthy fed subjects
[3] = 0 Hr., single dose 750 mg δ-tocotrienol
[4] = 0 Hr., single dose 1000 mg δ-tocotrienol
[5] = 1 hr., single dose 750 mg δ-tocotrienol
[6] = 1 hr., single dose 1000 mg δ-tocotrienol
[7] = 2 hr., single dose 750 mg δ-tocotrienol
[8] = 2 hr., single dose 1000 mg δ-tocotrienol
[9] = 4 hr., single dose 750 mg δ-tocotrienol
[10] = 4 hr., single dose 1000 mg δ-tocotrienol
[11] = 6 hr., single dose 750 mg δ-tocotrienol
[12] = 6 hr., single dose 1000 mg δ-tocotrienol
[13] = 8 hr., single dose 750 mg δ-tocotrienol
[14] = 8 hr., single dose 1000 mg δ-tocotrienol
[15] = single dose 750 mg δ-tocotrienol
[16] = single dose 1000 mg δ-tocotrienol
[17] = plasma tocol after single 125 mg δ-tocotrienol dose
[18] = plasma tocol after single 250 mg δ-tocotrienol dose
[19] = plasma tocol after single 500 mg δ-tocotrienol dose
[20] = plasma tocol after single dose 750 mg δ-tocotrienol
[21] = plasma tocol after single dose 1000 mg δ-tocotrienol

Structure (SMILES) | plasma tocol level [1, 3] | plasma tocol level [1, 4] | plasma tocol level [1, 5] | plasma tocol level [1, 6] | plasma tocol level [1, 7] | plasma tocol level [1, 8] | plasma tocol level [1, 9] | plasma tocol level [1, 10] | plasma tocol level [1, 11] | plasma tocol level [1, 12] | plasma tocol level [1, 13] | plasma tocol level [1, 14] | Total tocols (sum of 0-8 h) [1, 15] | Total tocols (sum of 0-8 h) [1, 16] | time of appearance in the plasma [2] | Elimination of Half-life time (t1/2) [2, 17] | Elimination rate constant (ke) [2, 17] | Plasma Peak Concentration (Cmax) [2, 17] | Time to achieve plasma peak (Tmax) [2, 17] | Elimination of Half-life time (t1/2) [2, 18] | also measured
Cc1c(O)cc2c(c1C)O[C@](C)(CCC[C@H](C)CCC[C@H](C)CCCC(C)C)CC2 [γ-Tocopherol] | 319 ± 30 ng/mL | 330 ± 34 ng/mL | 404 ± 44 ng/mL | 412 ± 17 ng/mL | 433 ± 26 ng/mL | 457 ± 33 ng/mL | 547 ± 12 ng/mL | 589 ± 39 ng/mL | 273 ± 67 ng/mL | 241 ± 28 ng/mL | 212 ± 16 ng/mL | 183 ± 14 ng/mL | 2188 ng/mL | 2212 ng/mL | > 2 h | 2.45 ± 0.37^a h | 0.184 ± 0.121^a h-1 | 507.64 ± 24.68^a ng/mL | 5.46 ± 0.93 h | 5.17 ± 1.06^b h | Total tocols (sum of 0-8 h) ([1]; single dose 750 mg δ-tocotrienol, listed as γ-tocopherol): 5544 ng/mL; Elimination rate constant (ke) [2, 18]: 0.146 ± 0.013^b h-1; Plasma Peak Concentration (Cmax) [2, 18]: 643.36 ± 37.26^b ng/mL; Time to achieve plasma peak (Tmax) [2, 18]: 3.00 h; Elimination of Half-life time (t1/2) [2, 19]: 4.99 ± 0.88^b h; Elimination rate constant (ke) [2, 19]: 0.126 ± 0.026^a h-1; Plasma Peak Concentration (Cmax) [2, 19]: 605.64 ± 48.17^b ng/mL; Time to achieve plasma peak (Tmax) [2, 19]: 2.82 ± 0.41 h
CC(C)=CCC/C(C)=C/CC/C(C)=C/CC[C@]1(C)CCc2c(C)c(O)cc(C)c2O1 [β-Tocotrienol] | 1145 ± 61 ng/mL | 1220 ± 93 ng/mL | 1565 ± 62 ng/mL | 1516 ± 21 ng/mL | 1568 ± 77 ng/mL | 1830 ± 91 ng/mL | 1885 ± 91 ng/mL | 1937 ± 72 ng/mL | 1538 ± 22 ng/mL | 1315 ± 48 ng/mL | 137 ± 102 ng/mL | 519 ± 20 ng/mL | 7838 ng/mL | 8337 ng/mL | > 2 h | 3.92 ± 0.86^a h | 0.542 ± 0.062^a h-1 | 979.00 ± 79.45^a ng/mL | 4.00 h | 3.90 ± 0.79^a h | Area Under the Curve-t0 - t8 (AUC0-8) [1, 20]: 11473.96 ± 316.15^c ng/ml; Area Under the Curve-t0 - ∞ (AUC0-∞) [1, 20]: 11709.23 ± 459.66^c ng/ml; Elimination of Half-life time (t1/2) [1, 20]: 1.02 ± 0.34^c h; Elimination rate constant (ke) [1, 20]: 0.681 ± 0.103^b h-1; Peak Plasma Concentration (Cmax) [1, 20]: 1885.20 ± 90.95^c ng/ml; Time to achieve plasma peak (Tmax) [1, 20]: 4.00 ^a h; Elimination of Half-life time (t1/2) [1, 21]: 2.11 ± 0.03^b h; Elimination rate constant (ke) [1, 21]: 0.327 ± 0.167^a h-1; Peak Plasma Concentration (Cmax) [1, 21]: 1948.13 ± 66.43^c ng/ml; Time to achieve plasma peak (Tmax) [1, 21]: 3.33 ± 1.16^a h; Elimination rate constant (ke) [2, 18]: 0.404 ± 0.032^b h-1; Plasma Peak Concentration (Cmax) [2, 18]: 1083.73 ± 82.26^b ng/mL; Elimination of Half-life time (t1/2) [2, 19]: 4.39 ± 0.63^a h; Elimination rate constant (ke) [2, 19]: 0.192 ± 0.014^c h-1; Plasma Peak Concentration (Cmax) [2, 19]: 1279.00 ± 116.44^c ng/mL; Time to achieve plasma peak (Tmax) [2, 19]: 3.00 h
Cc1cc(O)c(C)c2c1O[C@](C)(CCC[C@H](C)CCC[C@H](C)CCCC(C)C)CC2 [β-Tocopherol] | 542 ± 11 ng/mL | 639 ± 38 ng/mL | 525 ± 54 ng/mL | 763 ± 69 ng/mL | 599 ± 14 ng/mL | 1025 ± 58 ng/mL | 704 ± 29 ng/mL | 1525 ± 32 ng/mL | 621 ± 28 ng/mL | 717 ± 56 ng/mL | 278 ± 16 ng/mL | 516 ± 51 ng/mL | 3269 ng/mL | 5185 ng/mL | > 2 h | 1.82 ± 0.23 h | 1.247 ± 0.073^a h-1 | 956.09 ± 70.06^a ng/mL | 5.18 ± 1.17 h | 3.97 ± 0.66^a h | Elimination rate constant (ke) [2, 18]: 0.489 ± 0.063^b h-1; Plasma Peak Concentration (Cmax) [2, 18]: 949.91 ± 126.37^a ng/mL; Time to achieve plasma peak (Tmax) [2, 18]: 3.09 ± 0.30 h; Elimination of Half-life time (t1/2) [2, 19]: 3.27 ± 0.61^a h; Elimination rate constant (ke) [2, 19]: 0.275 ± 0.023^c h-1; Plasma Peak Concentration (Cmax) [2, 19]: 1045.09 ± 147.81^a ng/mL; Time to achieve plasma peak (Tmax) [2, 19]: 3.09 ± 0.32 h
